≈ marks a conversion by molar mass, not a printed value. Like-named read-outs stand apart in the source and are kept apart here.
How the values were obtained:
M. tuberculosis H37Rv [1] = experiment: Microdilution alamarBlue assay (MABA) MIC; type: cell-based; conditions: Mycobacterium tuberculosis
M. bovis BCG = experiment: microbe, parasite or virus in culture; type: cell-based; conditions: Mycobacterium tuberculosis variant bovis BCG
[2] = test system: BCG::pMV306PHsp60 strains overexpressing menG; type: cell-based, Mycobacterium bovis BCG
M. fortuitum = experiment: MABA MIC; type: cell-based, Mycobacterium fortuitum; conditions: Mycolicibacterium fortuitum
M. abcessus = experiment: MABA MIC; type: cell-based, Mycobacterium abscessus; conditions: Mycobacteroides abscessus
M. smegmatis = experiment: MABA MIC; type: cell-based, Mycobacterium smegmatis; conditions: Mycolicibacterium smegmatis
M. marinum = experiment: MABA MIC; type: cell-based; conditions: Mycobacterium marinum
M. avium = experiment: MABA MIC; type: cell-based, Mycobacterium avium subsp. avium; conditions: Mycobacterium avium
A. baumanii = experiment: MABA MIC; type: cell-based; conditions: Acinetobacter baumannii
E. cloacae = experiment: MABA MIC; type: cell-based; conditions: Enterobacter cloacae
E. faecium = experiment: MABA MIC; type: cell-based; conditions: Enterococcus faecium
Klebsiella pneumoniae = experiment: MABA MIC; type: cell-based
Pseudomonas aeruginosa = experiment: MABA MIC; type: cell-based
S. aureus MRSA = experiment: MABA MIC; type: cell-based; conditions: Staphylococcus aureus
S. epidemis 14490 = experiment: MABA MIC; type: cell-based; conditions: Staphylococcus epidermidis
Bacillus cereus = experiment: MABA MIC; type: cell-based
Burkholderia cepacia = experiment: MABA MIC; type: cell-based
[3] = test system: Yersinia pseudotuberculosis; experiment: microbe, parasite or virus in culture; type: cell-based
Brucella neotomae = experiment: microbe, parasite or virus in culture; type: cell-based
Francisella philomiragia = experiment: microbe, parasite or virus in culture; type: cell-based
Legionella pneumophila = experiment: microbe, parasite or virus in culture; type: cell-based
[4] = test system: nontuberculous mycobacteria (NTM); experiment: organism not typed; type: cell-based
[5] = test system: PcydAB promoter (cydAB operon) reporter; type: cell-based, Mycobacterium bovis BCG
[6] = test system: M. tuberculosis mc^26206 in J774A.1 murine macrophages; type: cell-based; conditions: J774A.1 macrophages, 3 days, concentrations equivalent to in vitro MIC
[7] = test system: BCG overexpressing menG_F118L; type: cell-based; conditions: 20 µg/ml of DG70, 7 days, CFU
[8] = test system: menaquinone biosynthesis (MenG); type: cell-based, Mycobacterium bovis BCG
[9] = test system: mycobacterial oxygen consumption; experiment: Oxygen consumption, methylene blue decolorization; type: cell-based
ATP synthesis in BCG = type: cell-based, Mycobacterium bovis BCG
[10] = test system: nonreplicating M. tuberculosis; type: cell-based, Mycobacterium tuberculosis; conditions: for reduction of CFU: 7 days, M. tuberculosis starved 6 weeks in PBS
M. tuberculosis H37Rv [11] = experiment: Checkerboard alamarBlue compound interaction assay; type: cell-based, Mycobacterium tuberculosis
BCG = type: cell-based, Mycobacterium bovis BCG
in vitro [12] = conditions: African green monkey
in vitro [13] = conditions: mouse, microsomes

SMILES: COc1ccc(-c2cc(NC(=O)c3ccc(F)cc3Cl)ccc2OC)cc1 [DG70, 2-chloro-N-(4',6-dimethoxy-[1,1'-biphenyl]-3-yl)-4-fluorobenzamide]
- MIC90 (M. tuberculosis H37Rv [1]; H37Rv + 400 µM MK4, read-out: MIC90): 9.6 µg/mL
- MIC90 (M. tuberculosis H37Rv [1]; H37Rv, lab strain, […], read-out: MIC90): 4.8 µg/mL (≈ 12.4 µM)
- MIC (M. tuberculosis H37Rv [1]; M. tuberculosis (Table S1), read-out: MIC): 4.8 µg/mL (≈ 12.4 µM)
- MIC (M. tuberculosis H37Rv [1]; Table S2, parent H37Rv, read-out: MIC in Mtb H37Rv): 2.4 µg/mL (≈ 6.22 µM)
- MIC (M. tuberculosis H37Rv [1]; whole-cell activity versus M. tuberculosis, […], read-out: MIC): 2.4 µg/mL (≈ 6.22 µM)
- MIC (M. bovis BCG): 2.4 µg/mL (≈ 6.22 µM)
- increase of DG70 MIC on overexpression of menG [2]: 4 ×
- MIC (M. fortuitum): > 40 µg/mL
- MIC (M. abcessus): > 40 µg/mL
- MIC (M. smegmatis): > 40 µg/mL
- MIC (M. marinum): > 40 µg/mL
- MIC (M. avium): > 40 µg/mL
- MIC (A. baumanii): > 20 µg/mL
- MIC (E. cloacae): > 20 µg/mL
- MIC (E. faecium): > 20 µg/mL
- MIC (Klebsiella pneumoniae): > 20 µg/mL
- MIC (Pseudomonas aeruginosa): > 20 µg/mL
- MIC (S. aureus MRSA): > 20 µg/mL
- MIC (S. epidemis 14490): > 20 µg/mL
- MIC (Bacillus cereus): > 40 µg/mL
- MIC (Burkholderia cepacia): > 40 µg/mL
- MIC [3]: > 40 µg/mL
- MIC (Brucella neotomae): > 40 µg/mL
- MIC (Francisella philomiragia): > 40 µg/mL
- MIC (Legionella pneumophila): > 40 µg/mL
- MIC [4]: > 100 µM
- activity against NTM and other bacteria [4]: lacked activity
- peak PcydAB induction [5]: 3.1 fold
- intracellular M. tuberculosis growth in macrophages [6]: inhibited intracellular M. tuberculosis growth
- growth inhibition of strain overexpressing menG_F118L [7]: completely resistant
- [14C]methyl incorporation into menaquinone [8]: complete suppression
- oxygen consumption (methylene blue decolorization at 665 nm) [9]: strongly prevented decolorization of methylene blue
- effect of MK4 supplementation on inhibition of oxygen consumption ([9]; 400 µM MK4): rescued
- effect of MK4 supplementation on inhibition of ATP synthesis (ATP synthesis in BCG): rescued
- intracellular ATP levels (ATP synthesis in BCG): significant decrease in ATP levels
- effect of MK4 on killing of nutrient-deprived M. tuberculosis ([10]; 400 µM MK4): reversed
- reduction of CFU ([10]; 5× MIC): 4 log10
- reduction of CFU ([10]; 10× MIC): 6.5 log10
- MIC In combination (M. tuberculosis H37Rv [11]; DG70 in combination with BDQ): 1.5 µM
- MIC In combination (M. tuberculosis H37Rv [11]; DG70 in combination with EMB): 1.5 µM
- MIC In combination (M. tuberculosis H37Rv [11]; DG70 in combination with INH): 3.12 µM
- MIC In combination (M. tuberculosis H37Rv [11]; DG70 in combination with PA824): 0.35 µM
- MIC In combination (M. tuberculosis H37Rv [11]; DG70 in combination with RIF): 3.1 µM
- MIC In combination (M. tuberculosis H37Rv [11]; DG70 in combination with THZ): 3.12 µM
- FIC (M. tuberculosis H37Rv [11]; FIC of DG70 in combination with BDQ): 0.1
- FIC (M. tuberculosis H37Rv [11]; FIC of DG70 in combination with EMB): 0.12
- FIC (M. tuberculosis H37Rv [11]; FIC of DG70 in combination with INH): 0.2
- FIC (M. tuberculosis H37Rv [11]; FIC of DG70 in combination with PA824): 0.03
- FIC (M. tuberculosis H37Rv [11]; FIC of DG70 in combination with RIF): 0.25
- FIC (M. tuberculosis H37Rv [11]; FIC of DG70 in combination with THZ): 0.2
- MIC (M. tuberculosis H37Rv [11]; Mycobacterium tuberculosis, H37RV, drug alone, checkerboard): 12.5 µM
- effect of MK4 pretreatment on bactericidal activity (BCG): could be reversed
- killing (drop in CFU) over 21 days (BCG): 5 log10
- killing in 4 days (BCG): less than 1 log10
- reduction of cultures after 2 days of treatment (BCG): ≤ 1 log10
- CC50 (in vitro [12]; 50% cytotoxic concentration (CC50), Vero cells): > 77 µg/mL
- CC50 (in vitro [12]; CC50, Vero cells, 48 h, MTT): > 80 µg/mL
- microsomal CLint (in vitro [13]): 921 µL/min/mg

From PMC5312080 (mBio, 2017)
